This assay deals with Coagulation factor XI (Homo sapiens, UniProt P03951). The assay can be described thus: Factor XIa Assay: The effectiveness of a compound of the present invention as an inhibitor of Coagulation Factor XIa can be determined using a relevant purified serine protease, and an appropriate synthetic substrate. The rate of hydrolysis of the chromogenic or fluorogenic substrate by the relevant serine protease was measured both in the absence and presence of compounds of the present invention. Assays were conducted at room temperature or at 37° C. […] A decrease in the rate of fluorescence change in the presence of inhibitor is indicative of enzyme inhibition. Such methods are known to one skilled in the art. […] Times required to achieve equilibration between enzyme and inhibitor were determined in control experiments. Initial velocities of product formation in the absence (Vo) or presence of inhibitor (Vi) were measured. Assuming competitive inhibition, and that unity is negligible compared Km/[S], [I]/e, and [I]/e (where [S], [I], and e respectively represent the total concentrations, of substrate, inhibitor and enzyme), the equilibrium constant (Ki) for dissociation of the inhibitor from the enzyme can be obtained from the dependence of Vo/Vi on [I] shown in the following equation. V o /V i=1+[I]/K iThe activities shown by this assay indicate that the compounds of the invention may be therapeutically useful for treating or preventing various cardiovascular and/or cerebrovascular thromboembolic conditions in patients suffering from unstable angina, acute coronary syndrome, refractory angina, myocardial infarction, transient ischemic attacks, atrial fibrillation, stroke such as thrombotic stroke or embolic stroke, venous thrombosis, coronary and cerebral arterial thrombosis, cerebral and pulmonary embolism, atherosclerosis, deep vein thrombosis, disseminated intravascular coagulation, and reocclusion or restenosis of recanalized vessels.
Chain of Coagulation factor XI (P03951 19-387 limits assumed): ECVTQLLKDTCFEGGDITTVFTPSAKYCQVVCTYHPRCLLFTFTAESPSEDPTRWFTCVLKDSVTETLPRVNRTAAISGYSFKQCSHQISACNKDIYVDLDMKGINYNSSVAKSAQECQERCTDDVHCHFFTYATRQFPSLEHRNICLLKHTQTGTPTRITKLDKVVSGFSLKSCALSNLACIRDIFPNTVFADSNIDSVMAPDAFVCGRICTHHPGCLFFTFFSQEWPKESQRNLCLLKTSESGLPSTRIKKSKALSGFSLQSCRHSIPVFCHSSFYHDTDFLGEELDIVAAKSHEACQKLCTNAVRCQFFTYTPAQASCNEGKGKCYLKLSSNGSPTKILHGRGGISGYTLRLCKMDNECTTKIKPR
Chain of Coagulation factor XI (P03951 388-625 limits assumed): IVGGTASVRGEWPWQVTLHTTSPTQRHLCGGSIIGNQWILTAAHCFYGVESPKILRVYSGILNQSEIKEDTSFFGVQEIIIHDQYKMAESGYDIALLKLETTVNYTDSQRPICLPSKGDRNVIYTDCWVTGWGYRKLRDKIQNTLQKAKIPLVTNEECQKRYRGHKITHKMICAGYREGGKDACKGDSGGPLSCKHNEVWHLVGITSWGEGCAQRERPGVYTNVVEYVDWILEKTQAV

For `COC(=O)Nc1ccc2c(N[C@@H](Cc3ccccc3)C(=O)N3CCC[C@@]4(C3)OC(=O)Nc3ccc(Cl)cc34)nn(C)c2c1`, the Ki worked out at 8.2 µM.

`COC(=O)Nc1ccc2c(N[C@@H](Cc3ccccc3)C(=O)N3CCC[C@@]4(C3)OC(=O)Nc3ccc(Cl)cc34)noc2c1`: the inhibition constant (Ki) came to 0.523 µM.

With `Nc1ccc(-c2c[nH]c(C(Cc3ccccc3)C(=O)N3CCC[C@@]4(C3)OC(=O)Nc3ccc(Cl)c(F)c34)n2)cn1` (some centres undefined), the inhibitory constant (Ki) was determined as 0.353 µM.

In the case of `CC(=O)Nc1ccc(N[C@@H](Cc2ccccc2)C(=O)N2CCC[C@@]3(C2)OC(=O)Nc2ccc(Cl)cc23)cc1`, the Ki came to 10 µM.

Values taken from ChEMBL document CHEMBL5725763, “Factor XIa inhibitors” (2018).
